According to publication PMC5458078, “Global mapping of CARM1 substrates defines enzyme specificity and substrate recognition” (Nature Communications, 2017):

system: MCF7 cells; experiment: Quantitative nanoLC-MS/MS (TMT) of ADMA-containing peptides, CARM1 KO vs parental; assay type: cell-based, human; set-up: Fold change KO/WT: scale not given here; details: ADMA-containing peptide, CARM1 knockout (KO) vs wild type (WT) MCF7 cells; 6-plex TMT experiment #1; three biological replicates each; sheet "MCF7"

Substance | Fold change KO/WT
VrPVLNLPGPGPALPR | -2.268
APESPPSADPALVAGPAEEAECPPPRQPQPAQNVLAAPrLR | -1.431
LQGQQFLNQSrQALELK | -1.9617
DLPLHPrGFLPGHAPFrPLGSLGPrEYFIPGTrLPPPTHGPQEYPPPPAVR | -1.638
TPGQPGPQrFDGPPGQQVQPrFDGVPQrFDGPQHQQASR | -1.547
SKPQLArYLGGSMDLSTFDFR | -0.3057
AGPrLLLIPVQQGSPTLRPVSNTQLQGHrMVLQPVR | -0.6769
QVTITGSAASISLAQYLINAr | -0.8472
QGSIGLYTQNQPLPAGGPrVDPYrPVRLPMQK | -2.102
QGSIGLYTQNQPLPAGGPRVDPYrPVRLPMQK | -1.665
AGPrLLLIPVQQGSPTLrPVSNTQLQGHrMVLQPVR | -0.8102
FEGSPGLrFEGSPGGLrFEGPGGQPVGGLrFEGHR | -0.8785
QLrMQLQQR | -2.307
MQLQQrLQGQQFLNQSrQALELK | -3.454

same assay, conditions: ADMA-containing peptide, MCF7, CARM1 knockout (KO1-3) vs wild type (WT1-3), TMT 6-plex experiment #1

Substance | Fold change KO/WT
SAPWNSFLPPPPPMPGPrLGPGKPGLK | -1.936
EPLVATNLPGrGQLQK | -0.7768
GMYNQrYHCPVPK | -2.857
GVVNTAVSAAVQAVrGrGrGTLTr | -0.6248
LAQDPYrLGHDPYR | -0.6293
LISVQTMQrGNMNCGAFQAHQMR | -0.03531
LSLPPIHTLYQPrFGNSQSFTSK | -2.191
AFHDYSAAAAPSPVLGNIPPNDGMPGGPIPPGFFQPFMSPrYAGGPrPPIR | -2.246
GrGTLTrGAFVGATAAPGYIAPGYGTPYGYSTAAPAYGLPKR | -0.6705
NrGFYPWGQYNrGGYGNYR | -0.1483
LPPDRYCLTAPNYrLK | -0.4021
SYrGGGGGGGGWR | -0.08168
LQHMQQQQPPPrLINFQNHSPKPNGPVLPPHPQQLrYPPNQNIPR | -0.9847

same assay, conditions: CARM1 KO vs parental MCF7 cells

Substance | Decrease of ADMA site abundance on CARM1 loss
PABP1: a known CARM1 substrate | slightly over twofold

same assay, conditions: CARM1 KO vs wild type MCF7 cells, 3 biological replicates each

Substance | Fold change KO/WT
TYSEVYPGQQYLQGGQYAPSTAQFAPSPGQPPAPSPSYPGHrLPLQQGMTQSLSVPGPTGLHYKPTR | -2.904
AAGMTPLYAGQrLPQHGYPGPPQAQPLPrQGVK | -1.882
SHLSTAGGLAVPSLPTAGPYYSPYALYGQrLASASALGYQ | -2.553
GAEAANVTGPDGVPVEGSrYAADR | -1.299
FFHMPrFQHQAPrQLFYK | -1.814
GSGTGIYSNAAPPPVTYQGNLYrPLLrGQAQIPK | -4.659
TEQAGrNALLSDISK | -1.119
LTrGQLQHLGTR | 0.1695
GGrFSAQGMGTFNPADYAEPANTDDNYGNSSGNTWNNTGHFEPDDGTSAWR | -0.4035
PVPPPPAPPPPPTFALANTEKPTLNKTEQAGrNALLSDISK | -1.049

same assay, conditions: MCF7, CARM1 KO (KO1-KO3) vs wild type (WT1-WT3)

Substance | Fold change KO/WT
AGGAASGGGGNSWDLPGSHVrLPGR | -0.8314
MGTPVPRPPQDMGQIGVrTPLGPrVAAPVGPVGPTPTVLPMGAPVPrPRGPPPPPGDENR | -1.953
FIQPrPTLNQPPPPLIRPANSMPPR | -1.409
FLQPrLAPNQPPPPLIrPALAAPRHSARPGPQPPPTLIGTPLEPPAPSL | -2.908
MGTPVPRPPQDMGQIGVRTPLGPrVAAPVGPVGPTPTVLPMGAPVPrPrGPPPPPGDENR | -3.578
TGFTNIPSrYGTNNR | -2.195
MGTPVPRPPQDMGQIGVrTPLGPRVAAPVGPVGPTPTVLPMGAPVPrPR | -3.4667
MGTPVPrPPQDMGQIGVRTPLGPR | -2.466
SYSrGGGDQGYGSGR | -0.3099

same assay, conditions: MCF7, CARM1 KO vs WT, three biological replicates each

Substance | Fold change KO/WT
TLLrGGMSLrGQNLLrGGR | 0.06328
MRPQPYGGTNPYSQQQGPPSGPQQGHGYPGQPYGSQTPQrYPMTMQGR | -2.959
SPYTTTRYGSPINTFTVrPGTR | -3.3255
MrPQPYGGTNPYSQQQGPPSGPQQGHGYPGQPYGSQTPQrYPMTMQGR | -3.351
TGALPGPGPLSNPrLGGLPGPGPMSNPrAGGLLGAGPDPR | -2.931
RPQLYGMGSNPHSQPQQSSPYPGGSYGPPGPQrYPIGIQGR | -1.511
DLYANTVLSGGSTMYPGIADr | 0.2012
LPNRDFAFYNPrLQGK | -1.34
TGALPGPGPLSNPrLGGLPGPGPMSNPrAGGLLGAGPDPrGGGPMGPGSGPNLR | -2.513
EELLrHQLLEKR | -2.786

same assay, conditions: MCF7, CARM1 knockout vs wild type, n = 3 each

Substance | Fold change KO/WT
GGAPFQFGGQrRPLLSQLK | -0.3698
NPFLTGLSAPSPTNPFGAGEPGrPTLNQMR | -3.967
SPLLNQPVPELSHASLIANQSPFrAPLNVTNTAGTSLPSVDLLQK | -2.328
GPPLArLPHDPGVFR | -1.8
GGGSGNFMGrGGNFGGGGGNFGrGGNFGGrGGYGGGGGGSR | -0.1359
DPFSQALSrCQLQQAAALNAQHK | -2.1
SNSGPYrGGYGGGGGYGGSSF | -0.1493
CAGFLEPTWLAAPPRLArPPR | -1.124
GPSGGYrGSGGFQrGGGrGAYGTGYFGQGR | 0.2112
AYSSFGGGrGSR | -0.1369
LDrICEGIRPQIMNGPLHPRPLVALLDGR | -0.535
QQQQQQQQQQQQLDLLFHQrIQISLWPR | -2.494
SSGSPYGGGYGSGGGSGGYGSrRF | -0.5008
SAGGRPGSGPQLGTGrGTLR | -0.3785

same assay, conditions: MCF7 CARM1 knockout vs wild type, 3 biological replicates each; values are on log2 scale

Substance | Fold change KO/WT
EVYQQQQYGSGGrGNR | 0.5359
NAALGPSEPrLALAPVGPrAAMSASSEGPrLALASPrPILAPLCTPEGQK | -3.912
QSSATSSFGGLGGGSVrFGPGVAFrAPSIHGGSGGR | -1.828
QSSATSSFGGLGGGSVrFGPGVAFR | -2.868
RAPVPVrGGPK | 0.8174
SPVAPPLGPrYAVFPK | -2.706
GTPVrGAITR | -0.02001
SLGSVQAPSYGARPVSSAASVYAGAGGSGSrISVSR | -1.494
LLGQRPGPYDrPIGGRGGYYGAGrGSMYDR | 0.09272
GGFQNrGGGSGGGGNYrGGFNR | 0.1419
DLVILLYETALLSSDFGLEGPQTHANr | 0.05306
INPGLEYrQHLLLR | -1.551
INPGLEYrQHLLLrGPPPGSANPPR | -0.6044
AYGQQYWGQPGNrGGYR | -0.04736
VPASPQSQSSSQSPLTPrPLSAEAFCPSPVTPRFQSPDPYSRPPSRPQSR | -2.744
LLGQRPGPYDrPIGGrGGYYGAGrGSMYDR | -0.2245
GPQWKRGArGGNLVTGTQr | -0.2728

system: MCF7 CARM1 KO cells; experiment: Quantitative MS of ADMA-containing peptides in MCF7 CARM1 KO cells expressing CARM1 28-608 or CARM1 140-608, and in CARM1 KO; assay type: cell-based, human; details: not given

Substance | CARM1 140-608/WT | KO/WT
GMYNQrYHCPVPK | -2.175 | -2.857
LAQDPYrLGHDPYR | -0.7785 | -0.6293

same assay, conditions: CARM1 140-608 versus WT, difference of mean log2 values

Substance | CARM1 140-608/WT
SHLSTAGGLAVPSLPTAGPYYSPYALYGQrLASASALGYQ | -2.31

same assay, conditions: CARM1 140-608 versus WT, mean of three replicates (log2)

Substance | CARM1 140-608/WT
VrPVLNLPGPGPALPR | -1.7334
APESPPSADPALVAGPAEEAECPPPRQPQPAQNVLAAPrLR | -0.5501
LQGQQFLNQSrQALELK | 0.6173
TPGQPGPQrFDGPPGQQVQPrFDGVPQrFDGPQHQQASR | -1.05
EHGAAASErLQLGTPPPLLAArLVPPR | -0.1041

same assay, conditions: CARM1 140-608 vs WT, mean of 3 replicates (log2 scale)

Substance | CARM1 140-608/WT
SAPWNSFLPPPPPMPGPrLGPGKPGLK | -1.2
AGGAASGGGGNSWDLPGSHVrLPGR | -0.7799
FIQPrPTLNQPPPPLIRPANSMPPR | 0.5669
MGTPVPRPPQDMGQIGVrTPLGPR | -1.0135

same assay, conditions: CARM1 140-608 vs WT, mean of 3 replicates, log2

Substance | CARM1 140-608/WT
MRPQPYGGTNPYSQQQGPPSGPQQGHGYPGQPYGSQTPQrYPMTMQGR | -0.1711
SPYTTTrYGSPINTFTVRPGTR | -0.1037

same assay, conditions: CARM1 KO versus WT, difference of mean log2 values

Substance | KO/WT
SHLSTAGGLAVPSLPTAGPYYSPYALYGQrLASASALGYQ | -2.998

same assay, conditions: KO versus WT, mean of three replicates (log2)

Substance | KO/WT
VrPVLNLPGPGPALPR | -4.296
APESPPSADPALVAGPAEEAECPPPRQPQPAQNVLAAPrLR | -1.431
LQGQQFLNQSrQALELK | -0.8589
TPGQPGPQrFDGPPGQQVQPrFDGVPQrFDGPQHQQASR | -1.824
EHGAAASErLQLGTPPPLLAArLVPPR | -0.4942

same assay, conditions: KO vs WT, mean of 3 replicates (log2 scale)

Substance | KO/WT
SAPWNSFLPPPPPMPGPrLGPGKPGLK | -1.936
AGGAASGGGGNSWDLPGSHVrLPGR | -0.9676
FIQPrPTLNQPPPPLIRPANSMPPR | -1.409
MGTPVPRPPQDMGQIGVrTPLGPR | -2.444

same assay, conditions: KO vs WT, mean of 3 replicates, log2

Substance | KO/WT
MRPQPYGGTNPYSQQQGPPSGPQQGHGYPGQPYGSQTPQrYPMTMQGR | -1.781
SPYTTTrYGSPINTFTVRPGTR | -2.259

same assay, conditions: difference of log2 means, CARM1 140-608 vs WT

Substance | CARM1 140-608/WT
DLPLHPrGFLPGHAPFrPLGSLGPrEYFIPGTrLPPPTHGPQEYPPPPAVR | -0.2675
QSSATSSFGGLGGGSVrFGPGVAFrAPSIHGGSGGR | -1.331
QSSATSSFGGLGGGSVrFGPGVAFR | -2.723
SPVAPPLGPrYAVFPK | 2.312
SKPQLArYLGGSMDLSTFDFR | -0.3331

same assay, conditions: difference of log2 means, KO vs WT

Substance | KO/WT
DLPLHPrGFLPGHAPFrPLGSLGPrEYFIPGTrLPPPTHGPQEYPPPPAVR | -2.443
QSSATSSFGGLGGGSVrFGPGVAFrAPSIHGGSGGR | -1.828
QSSATSSFGGLGGGSVrFGPGVAFR | -4.023
SPVAPPLGPrYAVFPK | -0.9897
SKPQLArYLGGSMDLSTFDFR | -0.5289

same assay, conditions: log2 scale ratio, mean of n = 3

Substance | CARM1 140-608/WT | KO/WT
EPLVATNLPGrGQLQK | -0.7114 | -0.7768
GVVNTAVSAAVQAVrGrGrGTLTr | -0.4677 | -0.6727

same assay, conditions: mean, CARM1 140-608 versus WT (log2 scale)

Substance | CARM1 140-608/WT
EVYQQQQYGSGGrGNR | -0.0375
NAALGPSEPrLALAPVGPrAAMSASSEGPrLALASPrPILAPLCTPEGQK | -2.352
GGGSGNFMGrGGNFGGGGGNFGrGGNFGGrGGYGGGGGGSR | -0.1884
RAPVPVrGGPK | 0.3236

same assay, conditions: mean, CARM1 KO versus WT (log2 scale)

Substance | KO/WT
EVYQQQQYGSGGrGNR | 0.5359
NAALGPSEPrLALAPVGPrAAMSASSEGPrLALASPrPILAPLCTPEGQK | -3.912
GGGSGNFMGrGGNFGGGGGNFGrGGNFGGrGGYGGGGGGSR | -0.008363
RAPVPVrGGPK | 1.039

same assay, conditions: ratio on log2 scale, mean of 3 replicates

Substance | CARM1 140-608/WT | KO/WT
GGAPFQFGGQrRPLLSQLK | 0.1701 | 0.08114
NPFLTGLSAPSPTNPFGAGEPGrPTLNQMR | -2.593 | -3.967
SPLLNQPVPELSHASLIANQSPFrAPLNVTNTAGTSLPSVDLLQK | -2.179 | -2.328
GPPLArLPHDPGVFR | -1.527 | -1.8
DPFSQALSrCQLQQAAALNAQHK | -1.585 | -2.1
ICEGIrPQIMNGPLHPRPLVALLDGR | -0.2372 | -0.9025
